Test results as given in US6346541B1, “Cyanoguanidines as cell proliferation inhibitors” (Leo Pharmaceutical Products Ltd. A/S, priority 1997, dated 2002).

Columns and labels:
Format in all cases: cell-based
[1] = test system: human breast cancer (MCF-7) cell line; test: Inhibition of tumour cell proliferation in vitro ([3H]thymidine incorporation), MCF-7; settings: MCF7, MCF-7 cells, cultured 24 hours with compound, DNA synthesis by [3H]thymidine incorporation
Procedure: (§1) The inhibition of tumour cell proliferation was studied using different types of human cancer cell lines. The cell lines under investigation were small cell lung carcinoma (NYH), non small cell lung carcinoma (NCI-H460), and breast cancer (MCF-7) using the following general procedure:
(§2) The cells were cultured in vitro for 24 hours in the presence of the compound under investigation. DNA synthesis was measured by incorporation of [3H]thymidine, and the median inhibitory concentrations (IC50) of the compounds were calculated.

[2] = test system: human small cell lung carcinoma (NYH) cell line; test: Inhibition of tumour cell proliferation in vitro ([3H]thymidine incorporation), NYH; settings: NYH cells, cultured 24 hours with compound, DNA synthesis by [3H]thymidine incorporation
Procedure: as §1, §2

[3] = test system: human non small cell lung cancer (NCI-H460) cell line; test: Inhibition of tumour cell proliferation in vitro ([3H]thymidine incorporation), NCI-H460; settings: NCI-H460 cells, cultured 24 hours with compound, DNA synthesis by [3H]thymidine incorporation
Procedure: as §1, §2

An IC50 [1] of 2.2 nM and an IC50 [2] of 1.7 nM were found for `N#CNC(=Nc1ccncc1)NCCCCCCOC(=O)c1ccc(Cl)cc1` [Example No. 4, N-(6-(4-Chlorobenzoyloxy)hexyl)-N′-cyano-N″-4-pyridylguanidine] in this work.
An IC50 [1] of 57 nM, an IC50 [2] of 6.2 nM and an IC50 [3] of 66 nM were found for `N#CNC(=Nc1ccncc1)NCCCCCCNC(=O)c1ccccc1` [Example No. 2, N-(6-Benzoylaminohexyl)-N′-cyano-N″-4-pyridylguanidine] in this work.
